# Test: Kinetic study: plasma kinetics of TMC278 after single IM or SC injection of a nanosuspension;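 note: healthy male beagle dogs injected in both biceps femoris muscles (IM) or both thoracal sides (SC), total volume 0.2 mL/kg, drug measured in plasma from blood samples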
# Assay type: in vivo, male beagle dogs
# Details: male, beagle, dog, plasma, 5 mg/kg
compound,measurement,setting,value
"Cc1cc(C=CC#N)cc(C)c1Nc1ccnc(Nc2ccc(C#N)cc2)n1 [TMC278, 4-[[4-[[4-(2-cyanoethenyl)-2,6-dimethylphenyl]amino]-2-pyrimidinyl]amino]benzonitrile]",concentration at 2208 h,"intramuscular, plasma concentration of TMC278, single IM 5 mg/kg TMC278 nanosuspension, mean of 2 dogs, 2208 h (d92)",1.41 ng/mL
same,concentration at 0 h,"sc, plasma concentration of TMC278, single SC 5 mg/kg TMC278 nanosuspension, dog 19129, 0 h (d0, predose)",< 1 ng/mL
same,concentration at 1 h,"sc, plasma concentration of TMC278, single SC 5 mg/kg TMC278 nanosuspension, dog 19129, 1 h",1.62 ng/mL
same,concentration at 3 h,"sc, plasma concentration of TMC278, single SC 5 mg/kg TMC278 nanosuspension, dog 19129, 3 h",7.96 ng/mL
same,concentration at 8 h,"sc, plasma concentration of TMC278, single SC 5 mg/kg TMC278 nanosuspension, dog 19129, 8 h",27.6 ng/mL
same,concentration at 24 h,"sc, plasma concentration of TMC278, single SC 5 mg/kg TMC278 nanosuspension, dog 19129, 24 h (d1)",15.7 ng/mL
same,concentration at 48 h,"sc, plasma concentration of TMC278, single SC 5 mg/kg TMC278 nanosuspension, dog 19129, 48 h (d2)",34.8 ng/mL
same,concentration at 72 h,"sc, plasma concentration of TMC278, single SC 5 mg/kg TMC278 nanosuspension, dog 19129, 72 h (d3)",26.1 ng/mL
same,concentration at 144 h,"sc, plasma concentration of TMC278, single SC 5 mg/kg TMC278 nanosuspension, dog 19129, 144 h (d6)",18.9 ng/mL
same,concentration at 192 h,"sc, plasma concentration of TMC278, single SC 5 mg/kg TMC278 nanosuspension, dog 19129, 192 h (d8)",17.7 ng/mL
same,concentration at 240 h,"sc, plasma concentration of TMC278, single SC 5 mg/kg TMC278 nanosuspension, dog 19129, 240 h (d10)",24.3 ng/mL
same,concentration at 312 h,"sc, plasma concentration of TMC278, single SC 5 mg/kg TMC278 nanosuspension, dog 19129, 312 h (d13)",21.7 ng/mL
same,concentration at 384 h,"sc, plasma concentration of TMC278, single SC 5 mg/kg TMC278 nanosuspension, dog 19129, 384 h (d16)",21.7 ng/mL
same,concentration at 480 h,"sc, plasma concentration of TMC278, single SC 5 mg/kg TMC278 nanosuspension, dog 19129, 480 h (d20)",29.8 ng/mL
same,concentration at 648 h,"sc, plasma concentration of TMC278, single SC 5 mg/kg TMC278 nanosuspension, dog 19129, 648 h (d27)",19 ng/mL
same,concentration at 696 h,"sc, plasma concentration of TMC278, single SC 5 mg/kg TMC278 nanosuspension, dog 19129, 696 h (d29)",21 ng/mL
same,concentration at 864 h,"sc, plasma concentration of TMC278, single SC 5 mg/kg TMC278 nanosuspension, dog 19129, 864 h (d36)",12.7 ng/mL
same,concentration at 1032 h,"sc, plasma concentration of TMC278, single SC 5 mg/kg TMC278 nanosuspension, dog 19129, 1032 h (d43)",5.22 ng/mL
same,concentration at 1200 h,"sc, plasma concentration of TMC278, single SC 5 mg/kg TMC278 nanosuspension, dog 19129, 1200 h (d50)",6.37 ng/mL
same,concentration at 1368 h,"sc, plasma concentration of TMC278, single SC 5 mg/kg TMC278 nanosuspension, dog 19129, 1368 h (d57)",4.78 ng/mL
same,concentration at 1536 h,"sc, plasma concentration of TMC278, single SC 5 mg/kg TMC278 nanosuspension, dog 19129, 1536 h (d64)",6.45 ng/mL
same,concentration at 1704 h,"sc, plasma concentration of TMC278, single SC 5 mg/kg TMC278 nanosuspension, dog 19129, 1704 h (d71)",3.96 ng/mL
same,concentration at 1872 h,"sc, plasma concentration of TMC278, single SC 5 mg/kg TMC278 nanosuspension, dog 19129, 1872 h (d78)",3.66 ng/mL
same,concentration at 2040 h,"sc, plasma concentration of TMC278, single SC 5 mg/kg TMC278 nanosuspension, dog 19129, 2040 h (d85)",8.6 ng/mL
same,concentration at 2208 h,"sc, plasma concentration of TMC278, single SC 5 mg/kg TMC278 nanosuspension, dog 19129, 2208 h (d92)",3.05 ng/mL
same,concentration at 0 h,"sc, plasma concentration of TMC278, single SC 5 mg/kg TMC278 nanosuspension, dog 19349, 0 h (d0, predose)",< 1 ng/mL
same,concentration at 1 h,"sc, plasma concentration of TMC278, single SC 5 mg/kg TMC278 nanosuspension, dog 19349, 1 h",1.37 ng/mL
same,concentration at 3 h,"sc, plasma concentration of TMC278, single SC 5 mg/kg TMC278 nanosuspension, dog 19349, 3 h",8.42 ng/mL
same,concentration at 8 h,"sc, plasma concentration of TMC278, single SC 5 mg/kg TMC278 nanosuspension, dog 19349, 8 h",13.8 ng/mL
same,concentration at 24 h,"sc, plasma concentration of TMC278, single SC 5 mg/kg TMC278 nanosuspension, dog 19349, 24 h (d1)",28.5 ng/mL
same,concentration at 48 h,"sc, plasma concentration of TMC278, single SC 5 mg/kg TMC278 nanosuspension, dog 19349, 48 h (d2)",29.1 ng/mL
same,concentration at 72 h,"sc, plasma concentration of TMC278, single SC 5 mg/kg TMC278 nanosuspension, dog 19349, 72 h (d3)",30.6 ng/mL
same,concentration at 144 h,"sc, plasma concentration of TMC278, single SC 5 mg/kg TMC278 nanosuspension, dog 19349, 144 h (d6)",32.7 ng/mL
same,concentration at 192 h,"sc, plasma concentration of TMC278, single SC 5 mg/kg TMC278 nanosuspension, dog 19349, 192 h (d8)",23 ng/mL
same,concentration at 240 h,"sc, plasma concentration of TMC278, single SC 5 mg/kg TMC278 nanosuspension, dog 19349, 240 h (d10)",42 ng/mL
same,concentration at 312 h,"sc, plasma concentration of TMC278, single SC 5 mg/kg TMC278 nanosuspension, dog 19349, 312 h (d13)",38.8 ng/mL
same,concentration at 384 h,"sc, plasma concentration of TMC278, single SC 5 mg/kg TMC278 nanosuspension, dog 19349, 384 h (d16)",16.6 ng/mL
same,concentration at 480 h,"sc, plasma concentration of TMC278, single SC 5 mg/kg TMC278 nanosuspension, dog 19349, 480 h (d20)",21.2 ng/mL
same,concentration at 648 h,"sc, plasma concentration of TMC278, single SC 5 mg/kg TMC278 nanosuspension, dog 19349, 648 h (d27)",11 ng/mL
same,concentration at 696 h,"sc, plasma concentration of TMC278, single SC 5 mg/kg TMC278 nanosuspension, dog 19349, 696 h (d29)",10.5 ng/mL
same,concentration at 864 h,"sc, plasma concentration of TMC278, single SC 5 mg/kg TMC278 nanosuspension, dog 19349, 864 h (d36)",5.49 ng/mL
same,concentration at 1032 h,"sc, plasma concentration of TMC278, single SC 5 mg/kg TMC278 nanosuspension, dog 19349, 1032 h (d43)",6.03 ng/mL
same,concentration at 1200 h,"sc, plasma concentration of TMC278, single SC 5 mg/kg TMC278 nanosuspension, dog 19349, 1200 h (d50)",3.4 ng/mL
same,concentration at 1368 h,"sc, plasma concentration of TMC278, single SC 5 mg/kg TMC278 nanosuspension, dog 19349, 1368 h (d57)",2.52 ng/mL
